The results in this text go back to patent US10821100B2, “Triazolone compounds as mPGES-1 inhibitors” (Glenmark Pharmaceuticals S.A., priority 2012, dated 2020).

Structures are written as SMILES.

This assay has as its target T1, Recombinant human mPGES-1 (Homo sapiens, UniProt O14684).
T1 construct: made in house; host or cells: CHO cells (crude microsomal fractions)
T1 sequence (O14684 1-152): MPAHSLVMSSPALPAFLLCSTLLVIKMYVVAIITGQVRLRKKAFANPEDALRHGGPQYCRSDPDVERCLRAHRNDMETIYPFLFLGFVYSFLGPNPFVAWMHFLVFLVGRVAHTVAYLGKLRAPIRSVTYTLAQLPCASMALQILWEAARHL
Nature of the assay: In-vitro screening of mPGES-1 inhibitors (inhibition of PGE2 formation from PGH2, HTRF detection). As to conditions: mPGES-1 enzyme; for inhibition at 1 µM: 1 μM test compound, read-out: Percentage inhibition at 1 μM; for inhibition at 1 µM / inhibition at 10 µM: crude microsomal fractions; for inhibition at 10 µM: 10 μM test compound, read-out: Percentage inhibition at 10 μM; for IC50: class symbols. Format: biochemical. The text has this: In-Vitro Protocol for Screening of mPGES-1 Inhibitors: mPGES-1 (Microsomal prostaglandin E synthase-1) is a microsomal enzyme that converts endoperoxide substrate PGH2 (prostaglandin H2) to product PGE2 (prostaglandin E2) by isomerization in the presence of reduced glutathione (GSH). mPGES-1 inhibitors were screened by assessing their ability to inhibit formation of PGE2 from PGH2 in the presence of mPGES-1 using an anti-PGE2 antibody based detection method. Recombinant human mPGES-1 was generated in-house by expression in CHO cells (Ouellet M et al. (2002), Protein Expression and Purification 26: 489-495). The assay was set up using crude microsomal fractions at a protein concentration of 40-60 μg/mL. Test compounds were prepared in 100% dimethyl sulfoxide (DMSO) to obtain 20 mM stock solution and then diluted using assay buffer comprising 0.1 M Potassium phosphate buffer with 2 mM EDTA. The final concentration of DMSO in the reaction was 0.5% (v/v). Negative controls were comprised of all assay reagents except the enzyme. Positive controls were comprised of the enzyme reaction in the absence of any inhibitor. Test compounds were incubated for 10 minutes in assay buffer containing 2.5 mM GSH and mPGES-1 enzyme followed by addition of PGH2 at a concentration of 15 μM for 1 minute. The reaction was stopped by addition of Stannous chloride (11 mg/ml) and PGE2 levels were measured ([…] et al. (2005), Journal of Biomolecular Screening 10(6) 599-605; Goedken R E et al. (2008), Journal of Biomolecular Screening 13 (7): 619-625) by HTRF kit (CisBio)). Inhibition of mPGES-1 enzyme activity was measured using the percent of reaction occurring in the positive control. Concentration response curves were plotted using percent inhibition of maximum enzyme reaction. The IC50 value was calculated from the concentration response curve by nonlinear regression analysis using GraphPad PRISM software.
For orientation: TR-FRET usually uses a lanthanide donor and a delayed reading to cut background.

Usually inhibition stands for the relative decrease from the control value, in per cent. For orientation: IC50 means the concentration that inhibits the measured activity by half. Turning to `O=c1[nH]c(-c2c(F)cccc2Cl)nn1-c1ccc(C#Cc2cccc(Cl)c2F)cc1` [Example-12, 1-(4-((3-Chloro-2-fluorophenyl)ethynyl)phenyl)-3-(2-chloro-6-fluorophenyl)-1H-1,2,4-triazol-5(4H)-one], the inhibition at 1 µM came to 84.8%, the inhibition at 10 µM amounted to 87.5% and the IC50 was below 50 nM.

As to `O=c1[nH]c(-c2c(F)cccc2Cl)nn1-c1ccc(C#Cc2ccc(C(F)(F)F)cn2)cc1` [Example-13, 5-(2-Chloro-6-fluorophenyl)-2-(4-{[5-(trifluoromethyl)pyridin-2-yl]ethynyl}phenyl)-2,4-dihydro-3H-1,2,4-triazol-3-one], the inhibition at 1 µM was found to be 86.3%, the inhibition at 10 µM came to 90.4% and the IC50 was above 100 nM.

Regarding `O=c1[nH]c(-c2c(F)cccc2Cl)nn1-c1ccc(C#Cc2ccncc2Cl)cc1` [Example-14, 5-(2-Chloro-6-fluorophenyl)-2-{4-[(3-chloropyridin-4-yl)ethynyl]phenyl}-2,4-dihydro-3H-1,2,4-triazol-3-one], the inhibition at 1 µM worked out at 96%, the inhibition at 10 µM came out at 95.8% and the IC50 was in the range of 50 to 100 nM.

Turning to `O=c1[nH]c(-c2c(F)cccc2Cl)nn1-c1ccc(C#Cc2cnc(N3CCOCC3)nc2)cc1` [Example-15, 3-(2-Chloro-6-fluorophenyl)-1-(4-((2-morpholinopyrimidin-5-yl)ethynyl)phenyl)-1H-1,2,4-triazol-5(4H)-one], the inhibition at 1 µM came to 64.2% and the inhibition at 10 µM was determined as 83.8%.

In the case of `O=c1[nH]c(-c2c(F)cccc2Cl)nn1-c1ccc(C#Cc2ccc(N3CCOCC3)nc2)cc1` [Example-16, 5-(2-Chloro-6-fluorophenyl)-2-(4-{[6-(morpholin-4-yl)pyridin-3-yl]ethynyl}phenyl)-2,4-dihydro-3H-1,2,4-triazol-3-one], the inhibition at 1 µM turned out to be 40.9% and the inhibition at 10 µM was 92.3%.

As to `O=C(NCC1CC1)c1ccc(-n2nc(-c3c(F)cccc3Cl)[nH]c2=O)cc1` [Example-17, 4-[3-(2-Chloro-6-fluorophenyl)-5-oxo-4,5-dihydro-1H-1,2,4-triazol-1-yl]-N-(cyclopropylmethyl)benzamide], the inhibition at 1 µM was determined as 2.52% and the inhibition at 10 µM is 44.1%.

As to `O=C(NCc1ccccc1C(F)(F)F)c1ccc(-n2nc(-c3c(F)cccc3Cl)[nH]c2=O)cc1` [Example-18, 4-[3-(2-Chloro-6-fluorophenyl)-5-oxo-4,5-dihydro-1H-1,2,4-triazol-1-yl]-N-[2-(trifluoromethyl)benzyl]benzamide], the inhibition at 1 µM stood at 56.2% and the inhibition at 10 µM was determined as 98.1%.

As to `COc1ccc(-n2nc(-c3c(F)cccc3Cl)[nH]c2=O)cc1C(=O)NCC1CC1` [Example-19, 5-[3-(2-Chloro-6-fluorophenyl)-5-oxo-4,5-dihydro-1H-1,2,4-triazol-1-yl]-N-(cyclopropylmethyl)-2-methoxybenzamide], the inhibition at 1 µM came to 5.11% and the inhibition at 10 µM was determined as 29.7%.

As to `COc1ccc(-n2nc(-c3c(F)cccc3Cl)[nH]c2=O)cc1C(=O)NCc1ccccc1C(F)(F)F` [Example-20, 5-[3-(2-Chloro-6-fluorophenyl)-5-oxo-4,5-dihydro-1H-1,2,4-triazol-1-yl]-2-methoxy-N-[2-(trifluoromethyl)benzyl]benzamide], the inhibition at 1 µM was 22.4% and the inhibition at 10 µM came out at 87.4%.

As to `COc1ccc(-n2nc(-c3c(F)cccc3Cl)[nH]c2=O)cc1C(=O)NC1(c2ccccc2C(F)(F)F)CC1` [Example-21, 5-[3-(2-Chloro-6-fluorophenyl)-5-oxo-4,5-dihydro-1H-1,2,4-triazol-1-yl]-2-methoxy-N-{1-[2-(trifluoromethyl)phenyl]cyclopropyl}benzamide], the inhibition at 1 µM worked out at 76.1% and the inhibition at 10 µM worked out at 91.8%.

Take `O=C(NC1(c2ccc(C(F)(F)F)cc2)CC1)c1ccc(-n2nc(-c3c(F)cccc3Cl)[nH]c2=O)cc1` [Example-22, 4-[3-(2-Chloro-6-fluorophenyl)-5-oxo-4,5-dihydro-1H-1,2,4-triazol-1-yl]-N-{1-[4-(trifluoromethyl)phenyl]cyclopropyl}benzamide]: the inhibition at 1 µM was 39.3% and the inhibition at 10 µM was 99.7%.

Turning to `COc1ccc(-n2nc(-c3c(F)cccc3Cl)[nH]c2=O)cc1C(=O)NC1(c2ccc(C(F)(F)F)cc2)CC1` [Example-23, 5-[3-(2-Chloro-6-fluorophenyl)-5-oxo-4,5-dihydro-1H-1,2,4-triazol-1-yl]-2-methoxy-N-[1-[4-(trifluoromethyl)phenyl]cyclopropyl]benzamide], the inhibition at 1 µM was found to be 13.2% and the inhibition at 10 µM stood at 52.9%.

Regarding `O=C(NC1(c2ccccc2C(F)(F)F)CC1)c1ccc(-n2nc(-c3c(F)cccc3Cl)[nH]c2=O)cc1` [Example-24, 4-(3-(2-Chloro-6-fluorophenyl)-5-oxo-4,5-dihydro-1H-1,2,4-triazol-1-yl)-N-(1-(2-(trifluoromethyl)phenyl)cyclopropyl)benzamide], the inhibition at 1 µM came to 71% and the inhibition at 10 µM was 83.1%.

Consider `COc1cc(-n2nc(-c3c(F)cccc3Cl)[nH]c2=O)ccc1C(=O)NCc1ccccc1C(F)(F)F` [Example-25, 4-[3-(2-Chloro-6-fluorophenyl)-5-oxo-4,5-dihydro-1H-1,2,4-triazol-1-yl]-2-methoxy-N-[2-(trifluoromethyl)benzyl]benzamide], for which the inhibition at 1 µM was 74.4%, the inhibition at 10 µM is 88.9% and the IC50 is above 100 nM.

With `COc1cc(-n2nc(-c3c(F)cccc3Cl)[nH]c2=O)ccc1C(=O)NC1(c2ccccc2C(F)(F)F)CC1` [Example-26, 4-(3-(2-Chloro-6-fluorophenyl)-5-oxo-4,5-dihydro-1H-1,2,4-triazol-1-yl)-2-methoxy-N-(1-(2-(trifluoromethyl)phenyl)cyclopropyl)benzamide], the inhibition at 1 µM is 80.6%, the inhibition at 10 µM was found to be 88.1% and the IC50 was above 100 nM.

For the compound `COc1cc(-n2nc(-c3c(F)cccc3Cl)[nH]c2=O)ccc1C(=O)NC1(c2ccc(C(F)(F)F)cc2)CC1` [Example-27, 4-(3-(2-Chloro-6-fluorophenyl)-5-oxo-4,5-dihydro-1H-1,2,4-triazol-1-yl)-2-methoxy-N-(1-(4-(trifluoromethyl)phenyl)cyclopropyl)benzamide], the inhibition at 1 µM was found to be 72.8% and the inhibition at 10 µM was 97.5%.

For `O=C(NCc1ccc(F)cc1C(F)(F)F)c1ccc(-n2nc(-c3c(F)cccc3Cl)[nH]c2=O)cc1` [Example-28, 4-(3-(2-Chloro-6-fluorophenyl)-5-oxo-4,5-dihydro-1H-1,2,4-triazol-1-yl)-N-(4-fluoro-2-(trifluoromethyl)benzyl)benzamide], the inhibition at 1 µM came out at 72.2% and the inhibition at 10 µM is 95.5%.

Turning to `O=C(Nc1ccc(C(F)(F)F)cc1)c1ccc(-n2nc(-c3c(F)cccc3Cl)[nH]c2=O)cc1` [Example-29, 4-(3-(2-Chloro-6-fluorophenyl)-5-oxo-4,5-dihydro-1H-1,2,4-triazol-1-yl)-N-(4-(trifluoromethyl)phenyl)benzamide], the inhibition at 1 µM came out at 79.2%, the inhibition at 10 µM was 85.8% and the IC50 is above 100 nM.

With `O=c1[nH]c(-c2c(F)cccc2Cl)nn1-c1ccc(-c2nc(-c3ccc(F)cc3)no2)cc1` [Example-30, 3-(2-Chloro-6-fluorophenyl)-1-(4-(3-(4-fluorophenyl)-1,2,4-oxadiazol-5-yl)phenyl)-1H-1,2,4-triazol-5(4H)-one], the inhibition at 1 µM is 89.6%, the inhibition at 10 µM was found to be 94.5% and the IC50 was below 50 nM.

Regarding `O=C(Nc1cccc(C(F)(F)F)c1)c1ccc(-n2nc(-c3c(F)cccc3Cl)[nH]c2=O)cc1` [Example-31, 4-(3-(2-Chloro-6-fluorophenyl)-5-oxo-4,5-dihydro-1H-1,2,4-triazol-1-yl)-N-(3-(trifluoromethyl)phenyl)benzamide], the inhibition at 1 µM came to 96.9%, the inhibition at 10 µM came to 98.6% and the IC50 was in the range of 50 to 100 nM.

Consider `O=C(Nc1ccc(F)c(C(F)(F)F)c1)c1ccc(-n2nc(-c3c(F)cccc3Cl)[nH]c2=O)cc1` [Example-32, 4-(3-(2-Chloro-6-fluorophenyl)-5-oxo-4,5-dihydro-1H-1,2,4-triazol-1-yl)-N-(4-fluoro-3-(trifluoromethyl)phenyl)benzamide], for which the inhibition at 1 µM turned out to be 88.8%, the inhibition at 10 µM worked out at 94% and the IC50 is 50 to 100 nM.
